Laboratory results: patent US12012403B2, “Aryl sulfonyl compounds as CCR6 inhibitors” (CHEMOCENTRYX, INC., priority 2021, dated 2024)

The molecules below were run against T1, human CCR6 (Homo sapiens, UniProt P51684) (assay: Migration (chemotaxis) assay, hCCR6-transfected Ba/F3 cells toward CCL20). Conditions: hCCR6-transfected Ba/F3 cells in human serum; recombinant human CCL20 10 nM; 37° C. 45 minutes; read-out: Potency (IC50 value in the migration assay).
T1 construct: expressed in transfected cells; host or cells: Ba/F3 cells (murine pro-B line), hCCR6-transfected, CMV promoter, sodium butyrate induction
T1 sequence (P51684 1-374): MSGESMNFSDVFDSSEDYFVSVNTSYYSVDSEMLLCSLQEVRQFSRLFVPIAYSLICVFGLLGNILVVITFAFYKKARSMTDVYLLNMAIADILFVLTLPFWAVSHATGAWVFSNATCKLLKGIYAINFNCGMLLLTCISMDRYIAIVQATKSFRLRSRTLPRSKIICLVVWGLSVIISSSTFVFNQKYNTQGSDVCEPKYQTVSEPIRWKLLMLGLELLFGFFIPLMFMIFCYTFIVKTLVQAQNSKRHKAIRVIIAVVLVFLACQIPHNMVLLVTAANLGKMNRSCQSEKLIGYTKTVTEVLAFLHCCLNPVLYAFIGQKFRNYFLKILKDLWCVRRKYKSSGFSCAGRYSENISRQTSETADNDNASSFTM
Type: cell-based
Method in brief: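 Ba/F3 cells stably transfected with human CCR6 (CMV promoter), pre-induced 24 hr with sodium butyrate, suspended at 4 million/ml in human serum with test compound serially diluted from 10 μM final. Migration through 5-μm polycarbonate membrane toward 10 nM CCL20 (EC50) for 45 min at 37 °C; migrated cells quantified by CyQUANT fluorescence.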
An IC50 of 5 to 100 nM was found for `NC(=O)C1CN(c2ccc(S(=O)(=O)N3CCC(Nc4ccc(C(F)(F)F)cn4)CC3)cc2)CCO1` (stereo not shown) [Example 1.202] in this work.
An IC50 of 5 to 100 nM was found for `NC(=O)N1CCCN(c2ccc(S(=O)(=O)N3CCC(Nc4ccc(C(F)(F)F)cn4)CC3)cc2)CC1` [Example 1.203] in this work.
An IC50 of 5 to 100 nM was found for `NC(=O)N1CCN(c2ccc(S(=O)(=O)N3CCC(Nc4ccc(C(F)(F)F)cn4)CC3)cc2)CC1` [Example 1.204] in this work.
An IC50 of 5 to 100 nM was found for `NC(=O)NC1CCN(c2ccc(S(=O)(=O)N3CCC(Nc4ccc(C(F)(F)F)cn4)CC3)cc2)CC1` [Example 1.205] in this work.
An IC50 of 5 to 100 nM was found for `CS(=O)(=O)NC1CCN(c2ccc(S(=O)(=O)N3CCC(Nc4ccc(C(F)(F)F)cn4)CC3)cc2)CC1` [Example 1.206] in this work.
An IC50 of 100 to 10000 nM was found for `N#Cc1n[nH]c2c1CN(c1ccc(S(=O)(=O)N3CCC(Nc4ccc(C(F)(F)F)cn4)CC3)cc1)CC2` [Example 1.207] in this work.
An IC50 of 100 to 10000 nM was found for `O=S(=O)(c1ccc(N2CCC(O)CC2)c(F)c1)N1CCC(Nc2ccc(C(F)(F)F)cn2)CC1` [Example 1.208] in this work.
An IC50 of 100 to 10000 nM was found for `O=S(=O)(c1ccc(N2CCC(O)CC2)nc1)N1CCC(Nc2ccc(C(F)(F)F)cn2)CC1` [Example 1.209] in this work.
An IC50 of 5 to 100 nM was found for `CC(=O)NC1CCN(c2ccc(S(=O)(=O)N3CCC(Nc4ccc(C(F)(F)F)cn4)CC3)cc2)CC1` [Example 1.210] in this work.
An IC50 of 100 to 10000 nM was found for `O=C1CN(c2ccc(S(=O)(=O)N3CCC(Nc4ccc(C(F)(F)F)cn4)CC3)cc2)CCN1` [Example 1.211] in this work.
An IC50 of 100 to 10000 nM was found for `CC(C)(C)OC(=O)N[C@@H]1CCN(c2ccc(S(=O)(=O)N3CCC(Nc4ccc(C(F)(F)F)cn4)CC3)cc2)C1` [Example 1.212] in this work.
An IC50 of 100 to 10000 nM was found for `CC(C)(C)OC(=O)N[C@@H]1CCCN(c2ccc(S(=O)(=O)N3CCC(Nc4ccc(C(F)(F)F)cn4)CC3)cc2)C1` [Example 1.213] in this work.
An IC50 of 5 to 100 nM was found for `O=S(=O)(c1ccc(N2CCc3[nH]ncc3C2)cc1)N1CCC(Nc2ccc(C(F)(F)F)cn2)CC1` [Example 1.214] in this work.
An IC50 of 5 to 100 nM was found for `NC(=O)N1CCCC(c2ccc(S(=O)(=O)N3CCC(Nc4ccc(C(F)(F)F)cn4)CC3)cc2)C1` (stereo not shown) [Example 1.215] in this work.
An IC50 of 5 to 100 nM was found for `NC(=O)N1CCC(c2ccc(S(=O)(=O)N3CCC(Nc4ccc(C(F)(F)F)cn4)CC3)cc2)CC1` [Example 1.216] in this work.
An IC50 of 5 to 100 nM was found for `CC(C)(C)OC(=O)NC1CCN(c2ccc(S(=O)(=O)N3CCC(Nc4ccc(C(F)(F)F)cn4)CC3)cc2)CC1` [Example 1.217] in this work.
An IC50 of 100 to 10000 nM was found for `CC(C)(C)OC(=O)N[C@H]1CCN(c2ccc(S(=O)(=O)N3CCC(Nc4ccc(C(F)(F)F)cn4)CC3)cc2)C1` [Example 1.218] in this work.
An IC50 of 100 to 10000 nM was found for `CC(C)(C)OC(=O)N[C@H]1CCCN(c2ccc(S(=O)(=O)N3CCC(Nc4ccc(C(F)(F)F)cn4)CC3)cc2)C1` [Example 1.219] in this work.
An IC50 of 5 to 100 nM was found for `O=S(=O)(c1ccc(N2CCC(Nc3ccccc3)CC2)cc1)N1CCC(Nc2ccc(C(F)(F)F)cn2)CC1` [Example 1.220] in this work.
An IC50 of 5 to 100 nM was found for `Cc1nc2c(s1)CN(c1ccc(S(=O)(=O)N3CCC(Nc4ccc(C(F)(F)F)cn4)CC3)cc1)CC2` [Example 1.221] in this work.
An IC50 of 5 to 100 nM was found for `O=S(=O)(c1ccc(N2CCC(c3ccn[nH]3)CC2)cc1)N1CCC(Nc2ccc(C(F)(F)F)cn2)CC1` [Example 1.222] in this work.
An IC50 of 100 to 10000 nM was found for `O=C1NC(=O)C2(CCCN(c3ccc(S(=O)(=O)N4CCC(Nc5ccc(C(F)(F)F)cn5)CC4)cc3)C2)N1` (stereo not shown) [Example 1.224] in this work.
An IC50 of 100 to 10000 nM was found for `O=S(=O)(c1ccc(C2CCCNC2)cc1)N1CCC(Nc2ccc(C(F)(F)F)cn2)CC1` (stereo not shown) [Example 1.225] in this work.
An IC50 of 5 to 100 nM was found for `CC(=O)N1CCN(c2ccc(S(=O)(=O)N3CCC(Nc4ccc(C(F)(F)F)cn4)CC3)cc2)CC1` [Example 1.226] in this work.
An IC50 of 100 to 10000 nM was found for `O=C1CCCCN1c1ccc(S(=O)(=O)N2CCC(Nc3ccc(C(F)(F)F)cn3)CC2)cc1` [Example 1.227] in this work.
An IC50 of 5 to 100 nM was found for `NC(=O)C1CCN(c2ccc(S(=O)(=O)N3CCC(Nc4ccc(C(F)(F)F)cn4)CC3)cc2)CC1` [Example 1.228] in this work.
An IC50 of 100 to 10000 nM was found for `O=S(=O)(c1ccc(N2CCn3ccnc3C2)cc1)N1CCC(Nc2ccc(C(F)(F)F)cn2)CC1` [Example 1.229] in this work.
An IC50 of 5 to 100 nM was found for `NC(=O)C1CCCN(c2ccc(S(=O)(=O)N3CCC(Nc4ccc(C(F)(F)F)cn4)CC3)cc2)C1` (stereo not shown) [Example 1.230] in this work.
An IC50 of 100 to 10000 nM was found for `O=S1(=O)CCN(c2ccc(S(=O)(=O)N3CCC(Nc4ccc(C(F)(F)F)cn4)CC3)cc2)CC1` [Example 1.231] in this work.
An IC50 of 100 to 10000 nM was found for `CN1CCN(c2ccc(S(=O)(=O)N3CCC(Nc4ccc(C(F)(F)F)cn4)CC3)cc2)CC1` [Example 1.232] in this work.
An IC50 of 5 to 100 nM was found for `CC(C)(C)OC(=O)N1CCC=C(c2ccc(S(=O)(=O)N3CCC(Nc4ccc(C(F)(F)F)cn4)CC3)cc2)C1` [Example 1.233] in this work.
An IC50 of 5 to 100 nM was found for `CC(C)(C)OC(=O)N1CC=C(c2ccc(S(=O)(=O)N3CCC(Nc4ccc(C(F)(F)F)cn4)CC3)cc2)CC1` [Example 1.234] in this work.
An IC50 of 5 to 100 nM was found for `O=S(=O)(c1ccc(N2CCCCC2)cc1)N1CCC(Nc2ccc(C(F)(F)F)cn2)CC1` [Example 1.235] in this work.
An IC50 of 5 to 100 nM was found for `O=S(=O)(c1ccc(C2=CCOCC2)cc1)N1CCC(Nc2ccc(C(F)(F)F)cn2)CC1` [Example 1.236] in this work.
